Source: ChEMBL document CHEMBL4673296 (J Med Chem, 2020)
Calls of active or inactive are those of the source. The rule behind the calls is not given here.

How the values were obtained:
Mus musculus = test: Decrease in ULK1 level in liver lysate of C57BL/6J mouse at 10 mg/kg, po measured after 2 hrs by Western blot analysis; type: functional, organism-based
MDA-MB-468 [1] = test: Induction of apoptosis in human MDA-MB-468 cells assessed as late apoptotic cells at 10 uM measured after 18 hrs in low-glucose, amino acid-free Earles balanced salt solution (EBSS) media by AnnexinV/7-AAD staining based flow cytometric analysis (reference value: 7.6%); type: functional
MDA-MB-468 [2] = test: Induction of apoptosis in human MDA-MB-468 cells assessed as viable cells at 10 uM measured after 18 hrs in normal growth media by AnnexinV/7-AAD staining based flow cytometric analysis (reference value: 87.4%); type: functional; details: read-out: Activity
[3] = AUC (0 to t) in C57BL/6J mouse at 30 mg/kg, po measured upto 24 hrs by LC-MS/MS analysis; type: ADME, organism-based; set-up: dose 30 mg/kg, time <=24; details: in vivo
MDA-MB-468 [4] = test: Inhibition of olaparib-induced autophagic flux in human MDA-MB-468 cells expressing tandem-labelled mCherryEGFP-LC3 chimeric protein at 10 uM measured after 48 hrs by flow cytometry; type: functional, cell-based
[5] = molecular target: T1, Serine/threonine-protein kinase ULK1 (Homo sapiens, UniProt O75385); test: Inhibition of recombinant human ULK1 (1-649) expressed in Sf9 cells using myelin basic protein as substrate by ADP-glo assay; details: sf9
T1 sequence (O75385 whole entry): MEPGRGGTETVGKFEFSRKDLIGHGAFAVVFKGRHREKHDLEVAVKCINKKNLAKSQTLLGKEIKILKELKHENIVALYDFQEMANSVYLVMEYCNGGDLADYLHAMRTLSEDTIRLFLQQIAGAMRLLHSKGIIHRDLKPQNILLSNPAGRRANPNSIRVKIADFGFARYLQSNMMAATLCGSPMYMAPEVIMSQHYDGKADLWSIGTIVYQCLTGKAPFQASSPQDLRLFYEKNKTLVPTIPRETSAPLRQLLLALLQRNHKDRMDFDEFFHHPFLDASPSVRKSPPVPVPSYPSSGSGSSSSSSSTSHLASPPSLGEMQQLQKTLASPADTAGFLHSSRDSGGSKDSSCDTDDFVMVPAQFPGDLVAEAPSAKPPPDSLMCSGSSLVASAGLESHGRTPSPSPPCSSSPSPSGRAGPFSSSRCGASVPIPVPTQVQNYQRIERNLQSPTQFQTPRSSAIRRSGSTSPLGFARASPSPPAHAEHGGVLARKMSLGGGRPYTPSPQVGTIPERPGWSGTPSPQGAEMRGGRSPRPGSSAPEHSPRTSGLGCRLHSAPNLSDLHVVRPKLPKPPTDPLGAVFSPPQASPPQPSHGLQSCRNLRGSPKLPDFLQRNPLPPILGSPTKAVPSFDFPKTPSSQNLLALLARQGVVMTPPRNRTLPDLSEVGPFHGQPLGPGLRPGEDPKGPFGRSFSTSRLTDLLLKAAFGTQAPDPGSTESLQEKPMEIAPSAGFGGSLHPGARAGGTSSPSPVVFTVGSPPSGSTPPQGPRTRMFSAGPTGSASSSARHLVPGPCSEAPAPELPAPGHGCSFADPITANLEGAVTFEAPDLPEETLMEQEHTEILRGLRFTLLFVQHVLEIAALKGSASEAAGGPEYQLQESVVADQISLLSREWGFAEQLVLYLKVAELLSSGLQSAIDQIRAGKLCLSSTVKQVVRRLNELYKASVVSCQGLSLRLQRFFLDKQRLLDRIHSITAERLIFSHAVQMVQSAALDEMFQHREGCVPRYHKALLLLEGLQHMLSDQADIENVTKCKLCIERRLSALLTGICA

[6] = molecular target: T1, Serine/threonine-protein kinase ULK1; test: Inhibition of ULK1 (unknown origin) expressed in HEK293T cells incubated for 2 hrs by NanoBRET assay; type: cell-based
MDA-MB-468 [7] = test: Synergistic cytotoxicity against human MDA-MB-468 cells a t0.021 to 15 uM in presence of PARP inhibitor olaparib measured after 72 hrs by Celltiter-Glo assay; type: functional, cell-based; details: dose 0.021-15 µM
[8] = Inhibition of starvation-induced autophagic flux in human MDA-MB-468 cells expressing tandem-labelled mCherryEGFP-LC3 chimeric protein at 10 uM measured after 18 hrs in EBSS media by flow cytometry (Rvb >90%); type: functional
[9] = Apparent permeability of the compound across basolateral side to apical side in human Caco2 cells; type: ADME, cell-based; details: Caco-2
MDA-MB-468 [10] = test: Induction of apoptosis in human MDA-MB-468 cells assessed as necrotic cells at 10 uM measured after 18 hrs in low-glucose, amino acid-free Earles balanced salt solution (EBSS) media by AnnexinV/7-AAD staining based flow cytometric analysis (reference value: 0.1%); type: functional
[11] = Apparent permeability of the compound across apical side to basolateral side in human Caco2 cells; type: ADME, cell-based; details: Caco-2
[12] = Tmax in C57BL/6J mouse at 30 mg/kg, po measured upto 24 hrs by LC-MS/MS analysis; type: ADME, organism-based; details: in vivo
[13] = molecular target: T2, Serine/threonine-protein kinase ULK1 (Homo sapiens) (UniProt O75385); test: Inhibition of Myc-tagged ULK1 (unknown origin) expressed in HEK293T cells cotransfected with wild-type Flag tagged Vps34 assessed as decrease in pVPS34 Ser249 at 10 uM measured after 1 hr by Western blot analysis relative to control; type: cell-based
T2 sequence (whole entry): T1 sequence (O75385 whole entry)

[14] = molecular target: T2, Serine/threonine-protein kinase ULK1 (Homo sapiens); test: Inhibition of Myc-tagged ULK1 (unknown origin) expressed in HEK293T cells cotransfected with wild-type Flag tagged Beclin-1 assessed as decrease in pBeclin1 Ser15 at 10 uM measured after 1 hr by Western blot analysis relative to control; type: cell-based

COc1ccc(Nc2ncc(C(F)(F)F)c(NC3CC3)n2)cc1OC
inhibition (Mus musculus): Active
Activity (MDA-MB-468 [1]): 18.4%
viability at 10 µM (MDA-MB-468 [2]): 64.1%
AUC(0-t) at 24 h [3]: 2.3 µM·h
inhibition (MDA-MB-468 [4]): Active
IC50 [5]: 13 nM
IC50 [6]: 328 nM
Activity (MDA-MB-468 [7]): Active
inhibition at 10 µM [8]: 60%
Papp B→A [9]: > 10 ×10⁻⁶ cm/s
Activity (MDA-MB-468 [10]): 0.1%
Papp A→B [11]: > 10 ×10⁻⁶ cm/s
Tmax [12]: 1 h
inhibition [13]: 90%
inhibition [14]: 60%
